Row | SMILES | melting point
1 | CCON(Cc1ccc(F)cc1)C(=O)/C=C1\OC(C)(C)OC1=O | 95 to 96 °C
2 | CC(C)CON(Cc1ccc(F)cc1)C(=O)/C=C1\OC(C)(C)OC1=O | 105 to 106 °C
3 | CON(Cc1ccc(F)c(Br)c1)C(=O)/C=C1\OC(C)(C)OC1=O | 117 to 119 °C
4 | CON(Cc1ccccc1C)C(=O)/C=C1\OC(C)(C)OC1=O | 96 to 97 °C
5 | CON(Cc1ccc(F)cc1F)C(=O)/C=C1\OC(C)(C)OC1=O | 120 to 125 °C
6 | CC1(C)OC(=O)/C(=C/C(=O)N(Cc2ccccc2)OCc2ccccc2)O1 | 107 to 108 °C
7 | CC(C)(C)OC(=O)CON(Cc1ccc(F)cc1)C(=O)/C=C1\OC(C)(C)OC1=O | 119 to 120 °C
8 | CON(Cc1ccc(C)cc1)C(=O)/C=C(\O)C(=O)O | 108 to 111 °C (dec.)
9 | CON(Cc1ccc(F)c(C)c1)C(=O)/C=C(\O)C(=O)O | 120 to 122 °C
10 | CON(Cc1ccc(C)c(F)c1)C(=O)/C=C(\O)C(=O)O | 99 °C
11 | CON(Cc1ccc(C(F)(F)F)cc1)C(=O)/C=C(\O)C(=O)O | 108 to 110 °C
12 | CON(Cc1ccc(F)cc1C(F)(F)F)C(=O)/C=C1\OC(C)(C)OC1=O | 129 to 130 °C
13 | CON(Cc1ccc(F)cc1Cl)C(=O)/C=C(\O)C(=O)O | 140 to 143 °C
14 | CON(Cc1ccc(F)cc1Cl)C(=O)/C=C1\OC(C)(C)OC1=O | 127 to 128 °C
15 | CON(Cc1ccccc1OC(C)C)C(=O)/C=C1\OC(C)(C)OC1=O | 103 °C
16 | CON(Cc1ccc(C(=O)O)cc1)C(=O)/C=C(\O)C(=O)O | 123 to 125 °C
17 | CON(CCCc1ccc(F)cc1)C(=O)/C=C(\O)C(=O)O | 86 °C (dec.)
18 | CON(CCCc1ccc(F)cc1)C(=O)/C=C1\OC(C)(C)OC1=O | 90 to 91 °C
19 | CON(CCCc1ccc(Cl)c(Cl)c1)C(=O)/C=C(\O)C(=O)O | 106 °C (dec.)
20 | CON(CCCc1ccc(Cl)c(Cl)c1)C(=O)/C=C1\OC(C)(C)OC1=O | 105 to 106 °C
21 | CC(C)(C)OC(=O)CON(Cc1ccc(Cl)c(Cl)c1)C(=O)/C=C1\OC(C)(C)OC1=O | 127 to 129 °C
22 | CN(C)CCON(Cc1ccc(F)cc1)C(=O)/C=C1\OC(C)(C)OC1=O | 95 to 96 °C
23 | CC1(C)OC(=O)/C(=C/C(=O)N(Cc2ccc(Cl)c(Cl)c2)OCc2ccccc2)O1 | 113 to 116 °C
24 | CON(Cc1cccc(F)c1)C(=O)/C=C1\OC(C)(C)OC1=O | 110 to 111 °C
25 | CON(Cc1ccccc1F)C(=O)/C=C1\OC(C)(C)OC1=O | 109 to 111 °C

Second part, the molecule after the results:

Row | melting point | SMILES
26 | 109 to 110 °C | CON(Cc1ccccc1)C(=O)/C=C1\OC(C)(C)OC1=O
27 | 129 to 130 °C | CON(Cc1ccc(Cl)cc1)C(=O)/C=C1\OC(C)(C)OC1=O
28 | 113 to 114 °C | COc1ccc(CN(OC)C(=O)/C=C2\OC(C)(C)OC2=O)cc1
29 | 120 °C | COC(=O)c1ccc(CN(OC)C(=O)/C=C2\OC(C)(C)OC2=O)cc1
30 | 148 to 149 °C | CON(Cc1ccc(C#N)cc1)C(=O)/C=C1\OC(C)(C)OC1=O
31 | 212 to 215 °C (dec.) | CON(Cc1ccc(NC(C)=O)cc1)C(=O)/C=C1\OC(C)(C)OC1=O
32 | 108 to 110 °C | CON(Cc1ccc(C)cc1)C(=O)/C=C1\OC(C)(C)OC1=O
33 | 107 to 108 °C | CON(Cc1ccc(F)c(C)c1)C(=O)/C=C1\OC(C)(C)OC1=O
34 | 131 °C | CON(Cc1ccc(C)c(F)c1)C(=O)/C=C1\OC(C)(C)OC1=O
35 | 110 °C | CON(Cc1ccc(C(F)(F)F)cc1)C(=O)/C=C1\OC(C)(C)OC1=O
36 | 137 to 138 °C | CON(Cc1ccc(C(=O)OC(C)(C)C)cc1)C(=O)/C=C1\OC(C)(C)OC1=O
37 | 217 to 219 °C | CON(Cc1ccc(C(=O)O)cc1)C(=O)/C=C1\OC(C)(C)OC1=O
38 | 106 to 107 °C | CON(CCc1ccc(F)cc1)C(=O)/C=C1\OC(C)(C)OC1=O

From patent publication US6777440B2, “HIV integrase inhibitors” (Bristol-Myers Squibb Company, priority 2001, dated 2004)
